Assay results as given in PMC8602723, “Comparative assessment of antimicrobial, antiradical and cytotoxic activities of cannabidiol and its propyl analogue cannabidivarin” (Scientific Reports, 2021).
Like-named read-outs stand apart in the source and are kept apart here.

Columns and labels:
[1] = tested on: A549 cells; assay: MTT assay (mitochondrial metabolism); type: cell-based; details: Homo sapiens, read-out: IC50 MTT assay
Description: (§1) MTT assay is the most commonly used method for high-throughput identification of the antiproliferative effects of compounds on cultured cells and is indirectly correlated with mitochondria-dependent apoptosis progression[59]–[61]. The production of reducing equivalents such as NADH in metabolically active cells is an indicator of “cell redox activity”, indirectly reflecting the number of viable cells[60],[61] and the mitochondrial metabolic rate in cells[62],[63].
(§2) A549, Caco-2, HepG2 and TelCOFS02MA cells (1 × 10^4 cells/well), and MDA-MB-231 cells (0.5 × 10^4 cells/well) were seeded in 100 µL of fresh medium into 96-well plates (TC-Plate 96 wells, Sarstedt, Verona, Italy) in quadruplicate for 24 h at 37 °C in a humidified atmosphere of 95% air plus 5% CO2. Then, the medium was removed and replaced with 200 µL of media with different concentrations of CBD (5–80 µM, dilution factor [DF] equal to 2) and CBDV (5.5–88 µM, DF = 2) chosen on the basis of range-finding tests (0.5, 5, and 50 mg/L). We chose 1.56–25 mg/L to be tested and, to make easier the comparison between the two cannabinoids activities, the concentrations were reported in [μM]. In all experiments, negative controls (wells containing cells exposed only to the medium) and solvent controls (wells containing cells exposed to 2.5% methanol) were included. The plates were incubated at 37 °C for three exposure times: 24, 48 and 72 h (different plates were prepared for each specific time point). Then, MTT solution (5 mg/mL) was added to each well, and the plates were re-incubated for 4 h at 37 °C. The culture medium was removed, and 2-propanol was used to dissolve formazan crystals. The absorbance of formazan was measured spectrophotometrically at 590 nm using an automated microplate reader (Synergy H1, Biotek, Winooski, USA). The results are reported as the percentages of cells with inhibited proliferation, as determined by the link between the inhibition of mitochondrial metabolic activity and proliferation. The results were calculated with the following formula:1 IC%=1-OD590sample/OD590negativecontrol·100
(§3) Furthermore, IC50 values (concentrations of the sample used to obtain an inhibition of 50% of cell growth/metabolic activity) were calculated.
(§4) All results from five independent experiments are expressed as the IC50 or EC50 as determined by analysis with Prism 5 software (GraphPad Inc., San Diego, CA, USA) and nonlinear regression (log agonist vs. normalized response-variable slope) with a 95% confidence range. Lowest observed adverse effect concentrations (LOAECs) were calculated by one-way ANOVA and Dunnett’s comparison test. Differences compared to the controls were considered significant as follows: *p < 0.05, **p < 0.001 and ***p < 0.0001.

[2] = tested on: Hep G2 cells; assay: MTT assay (mitochondrial metabolism); type: cell-based; details: Homo sapiens, read-out: IC50 MTT assay
Description: as §1, §2, §3, §4

[3] = tested on: TelCOFS02MA cells; assay: LDH assay (plasma membrane damage); type: cell-based, human; details: for IC50: Homo sapiens, read-out: IC50 LDH assay
Procedure: LDH assay is a high-throughput method based on the release of the LDH cytoplasmic enzyme from the cytosol into the extracellular space when the plasma membrane is damaged[29],[30]. Plasma membrane damage related to the amount of lysed cells was monitored by LDH assay, and the results were used for indirectly detecting the necrosis correlated to the leakage of the cytosolic enzyme due the loss of membrane permeability control[29],[30]. This assay was performed with the protocol described by Lehmann and colleagues.
Briefly, 1 × 10^4 A549 and Caco-2 cells and 2 × 10^4 HepG2, MDA-MB-231 and TelCOFS02MA cells were seeded in 100 µL of 1% FBS-fresh medium in each well of 96-well plates and incubated for 24 h at 37 °C with 95% humidity and 5% CO2. Then, the medium was removed and replaced with 100 µL of medium with different concentrations of CBD and CBDV, which were chosen on the basis of range-finding tests (as previously indicated). The plates were incubated at 37 °C for 72 h. In all experiments, the background control (wells with medium and without cells to obtain information about the LDH activity in the assay medium), low control (wells containing cells exposed only to the medium to determine spontaneous LDH release), high control (wells containing cells exposed to 2% Triton-X100 for 10 min before performing the assay to determine maximum LDH release), and solvent controls (2.5% methanol) were included. One hundred microlitres of supernatant was removed carefully from each well and transferred into corresponding wells in optically clear 96-well flat bottom microplates. One hundred microlitres of freshly prepared reaction mixture (Diaphorase (Catalyst)/NAD^+ /INT/sodium lactate) was added to each well and incubated for 30 min at 20 °C in darkness. Thus, NAD^+ was reduced to NADH/H^+ by the LDH-catalysed conversion of lactate to pyruvate. Then, the catalyst transferred H/H^+ from NADH/H^+ to the tetrazolium salt INT, which was reduced to formazan. To arrest the reaction, 50 µL/well of 1 N HCl was added. The spectrophotometric absorbance was determined at 492 nm. The absorbance of the background control wells was subtracted from all other values.
The results are reported as percentages of cytotoxicity, which is linked to the percentage of LDH released from damaged plasma membranes, calculated as follows:3 IC%=OD492sample-OD492lowcontrol/OD492highcontrol-OD492lowcontrol·100
IC50 values (concentrations of the sample to obtain 50% cytotoxicity) were calculated.
All results from five independent experiments are expressed as the IC50 or EC50 as determined by analysis with Prism 5 software (GraphPad Inc., San Diego, CA, USA) and nonlinear regression (log agonist vs. normalized response-variable slope) with a 95% confidence range. […]

[4] = DPPH assay (radical scavenging); details: for DPPH scavenging capacity less than the capacity of Trolox: compared with Trolox
Procedure: DPPH assay was performed following the protocol described by Brand-Williams et al.[69]. DPPH^⋅ was dissolved in methanol, generating a purple solution (101.43 µM). […] Furthermore, 940 μL of methanol and 60 μL of distilled water were used for the blank. Trolox was used as the standard control, and methanol was used as the solvent control.
The results were expressed as the median effective concentration of sample able to reduce the initial absorbance of the DPPH radical (EC50). Furthermore, TEAC values were calculated in line with Shimamura end colleagues[68] as previously reported.
as §4

## C=C(C)[C@@H]1CCC(C)=C[C@H]1c1c(O)cc(CCC)cc1O [CBDV, cannabidivarin]
[1]; A549, 72 h
  IC50: 32.9 µM
[2]; HepG2, 72 h
  IC50: 19.7 µM
[3]; 72 h
  IC50: 152 µM
[3]; TelCOFS02MA, 72 h
  LOAEC LDH assay: 88 µM
[4]; EC50 Trolox/EC50 sample
  TEAC (Trolox equivalent antioxidant capacity), DPPH: 0.09
[4]
  DPPH scavenging capacity less than the capacity of Trolox: 91%

## C=C(C)[C@@H]1CCC(C)=C[C@H]1c1c(O)cc(CCCCC)cc1O [CBD, Cannabidiol]
[1]; A549, 72 h exposure, 95% confidence interval in brackets
  IC50: 27.7 µM
[2]; HepG2, Hep G2, 72 h exposure, 95% confidence interval in brackets
  IC50: 15.8 µM
[3]; TelCOFS02MA, 72 h exposure, 95% confidence interval in brackets
  IC50: 118 µM
[3]; TelCOFS02MA, 72 h
  LOAEC LDH assay: 80 µM
[4]
  DPPH scavenging capacity less than the capacity of Trolox: 90%
